How the values were obtained:
[1] = biological target: G protein-coupled receptor kinase 4 (Homo sapiens) (UniProt P32298); test: Selectivity interaction (KinomeScan (DiscoverX)) EUB0000092b GRK4; details: at 10 µM
[2] = biological target: T1, Mitogen-activated protein kinase kinase kinase 7 (Homo sapiens) (UniProt O43318); test: Selectivity interaction (KinomeScan (DiscoverX)) EUB0000092b MAP3K7; details: at 10 µM
T1 sequence (whole entry): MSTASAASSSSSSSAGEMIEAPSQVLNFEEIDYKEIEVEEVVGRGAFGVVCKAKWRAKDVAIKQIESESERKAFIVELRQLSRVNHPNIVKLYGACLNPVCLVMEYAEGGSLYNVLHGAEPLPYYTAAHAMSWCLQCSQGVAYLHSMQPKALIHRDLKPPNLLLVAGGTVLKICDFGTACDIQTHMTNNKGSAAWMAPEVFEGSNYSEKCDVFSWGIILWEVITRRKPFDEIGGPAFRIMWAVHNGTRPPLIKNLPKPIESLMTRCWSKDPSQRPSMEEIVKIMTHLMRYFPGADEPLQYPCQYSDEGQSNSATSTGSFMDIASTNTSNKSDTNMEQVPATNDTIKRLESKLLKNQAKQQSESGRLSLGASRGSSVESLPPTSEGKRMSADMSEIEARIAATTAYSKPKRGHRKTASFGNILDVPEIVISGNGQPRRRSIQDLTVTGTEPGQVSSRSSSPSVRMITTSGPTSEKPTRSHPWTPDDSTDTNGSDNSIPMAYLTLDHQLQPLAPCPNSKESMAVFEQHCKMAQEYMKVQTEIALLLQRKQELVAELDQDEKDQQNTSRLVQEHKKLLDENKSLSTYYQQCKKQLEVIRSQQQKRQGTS

[3] = biological target: T2, Rhodopsin kinase GRK7 (Homo sapiens) (UniProt Q8WTQ7); test: Selectivity interaction (ProQinase) EUB0000171b GRK7
T2 sequence (whole entry): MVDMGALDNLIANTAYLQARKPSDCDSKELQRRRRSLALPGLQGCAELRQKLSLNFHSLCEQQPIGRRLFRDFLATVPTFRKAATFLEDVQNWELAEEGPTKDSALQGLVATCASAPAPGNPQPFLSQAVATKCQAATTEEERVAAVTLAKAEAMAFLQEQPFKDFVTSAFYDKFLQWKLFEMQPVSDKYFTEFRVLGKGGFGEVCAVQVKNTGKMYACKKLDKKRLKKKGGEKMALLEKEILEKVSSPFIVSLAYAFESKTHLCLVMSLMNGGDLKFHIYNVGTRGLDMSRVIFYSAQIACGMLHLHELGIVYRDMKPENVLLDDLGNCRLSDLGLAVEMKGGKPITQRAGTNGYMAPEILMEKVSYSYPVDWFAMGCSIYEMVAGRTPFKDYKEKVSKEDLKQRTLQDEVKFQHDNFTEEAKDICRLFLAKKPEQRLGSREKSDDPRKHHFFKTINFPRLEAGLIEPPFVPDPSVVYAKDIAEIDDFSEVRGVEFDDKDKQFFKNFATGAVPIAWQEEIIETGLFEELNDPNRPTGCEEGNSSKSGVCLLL

[4] = biological target: Receptor tyrosine-protein kinase erbB-3 (Homo sapiens) (UniProt P21860); details: at 10 µM
Receptor tyrosine-protein kinase erbB-3 (Homo sapiens), sequence (P21860 whole entry): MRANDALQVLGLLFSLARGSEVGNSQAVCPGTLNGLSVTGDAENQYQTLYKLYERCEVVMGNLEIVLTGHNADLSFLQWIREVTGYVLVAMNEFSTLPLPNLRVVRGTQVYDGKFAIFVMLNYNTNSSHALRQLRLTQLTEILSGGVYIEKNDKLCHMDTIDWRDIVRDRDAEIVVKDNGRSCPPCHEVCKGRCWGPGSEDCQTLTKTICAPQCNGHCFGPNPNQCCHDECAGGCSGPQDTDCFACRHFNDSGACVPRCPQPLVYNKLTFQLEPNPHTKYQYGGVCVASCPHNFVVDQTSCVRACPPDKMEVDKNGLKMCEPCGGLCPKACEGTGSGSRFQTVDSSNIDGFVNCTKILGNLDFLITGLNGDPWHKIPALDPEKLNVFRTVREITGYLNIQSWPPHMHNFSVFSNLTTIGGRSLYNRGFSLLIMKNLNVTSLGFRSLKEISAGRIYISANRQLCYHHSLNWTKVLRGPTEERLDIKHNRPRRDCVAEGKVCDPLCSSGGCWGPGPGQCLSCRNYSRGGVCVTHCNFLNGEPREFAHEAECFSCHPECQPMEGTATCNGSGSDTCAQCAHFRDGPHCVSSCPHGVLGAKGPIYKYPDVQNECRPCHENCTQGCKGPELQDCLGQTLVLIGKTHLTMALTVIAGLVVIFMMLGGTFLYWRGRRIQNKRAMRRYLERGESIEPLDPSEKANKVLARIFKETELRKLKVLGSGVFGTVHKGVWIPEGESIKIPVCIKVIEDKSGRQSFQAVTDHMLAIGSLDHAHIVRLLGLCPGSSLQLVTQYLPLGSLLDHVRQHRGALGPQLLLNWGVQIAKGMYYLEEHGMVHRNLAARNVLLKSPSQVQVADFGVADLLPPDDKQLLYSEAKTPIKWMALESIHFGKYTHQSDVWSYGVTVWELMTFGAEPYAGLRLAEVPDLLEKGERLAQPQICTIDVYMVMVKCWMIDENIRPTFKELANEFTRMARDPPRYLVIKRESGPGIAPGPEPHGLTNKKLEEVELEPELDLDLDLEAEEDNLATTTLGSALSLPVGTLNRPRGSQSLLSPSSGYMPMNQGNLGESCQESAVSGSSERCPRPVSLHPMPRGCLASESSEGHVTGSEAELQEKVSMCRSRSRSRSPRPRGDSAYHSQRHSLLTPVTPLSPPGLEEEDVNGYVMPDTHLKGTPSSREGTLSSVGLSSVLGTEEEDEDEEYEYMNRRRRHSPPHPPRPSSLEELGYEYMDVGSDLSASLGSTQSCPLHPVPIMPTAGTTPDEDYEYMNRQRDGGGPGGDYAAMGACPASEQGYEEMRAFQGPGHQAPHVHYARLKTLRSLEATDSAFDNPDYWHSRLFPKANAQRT

[5] = biological target: MAP/microtubule affinity-regulating kinase 3 (Homo sapiens) (UniProt P27448); test: Selectivity interaction (Kinase panel (Z-LYTE Assay)) EUB0001632a MARK3; details: at 10 µM
MAP/microtubule affinity-regulating kinase 3 (Homo sapiens), sequence (P27448 whole entry, looked up): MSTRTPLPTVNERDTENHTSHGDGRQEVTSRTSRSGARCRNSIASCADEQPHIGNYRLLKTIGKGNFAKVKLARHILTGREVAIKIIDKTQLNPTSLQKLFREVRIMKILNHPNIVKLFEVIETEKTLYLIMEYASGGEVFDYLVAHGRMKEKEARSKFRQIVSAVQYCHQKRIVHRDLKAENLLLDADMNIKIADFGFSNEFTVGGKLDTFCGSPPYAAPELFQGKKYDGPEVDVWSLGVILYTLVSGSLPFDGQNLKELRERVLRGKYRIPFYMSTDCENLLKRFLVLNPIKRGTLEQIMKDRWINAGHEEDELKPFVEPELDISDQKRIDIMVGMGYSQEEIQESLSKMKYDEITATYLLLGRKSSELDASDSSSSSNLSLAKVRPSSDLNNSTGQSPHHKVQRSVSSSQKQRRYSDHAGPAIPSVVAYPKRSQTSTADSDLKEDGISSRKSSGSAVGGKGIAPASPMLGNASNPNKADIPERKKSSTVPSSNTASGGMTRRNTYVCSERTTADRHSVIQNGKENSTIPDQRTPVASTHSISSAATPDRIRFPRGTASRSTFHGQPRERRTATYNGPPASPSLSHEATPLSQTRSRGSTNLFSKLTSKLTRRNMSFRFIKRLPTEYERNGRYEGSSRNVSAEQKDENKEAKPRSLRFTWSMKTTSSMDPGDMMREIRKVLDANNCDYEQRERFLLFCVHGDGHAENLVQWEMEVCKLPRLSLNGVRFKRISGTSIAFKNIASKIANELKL

[6] = biological target: Tyrosine-protein kinase ABL1 (Homo sapiens, UniProt P00519); test: Selectivity interaction (KinomeScan (DiscoverX)) EUB0000607a ABL1; details: at 10 µM
Tyrosine-protein kinase ABL1, sequence (P00519 whole entry): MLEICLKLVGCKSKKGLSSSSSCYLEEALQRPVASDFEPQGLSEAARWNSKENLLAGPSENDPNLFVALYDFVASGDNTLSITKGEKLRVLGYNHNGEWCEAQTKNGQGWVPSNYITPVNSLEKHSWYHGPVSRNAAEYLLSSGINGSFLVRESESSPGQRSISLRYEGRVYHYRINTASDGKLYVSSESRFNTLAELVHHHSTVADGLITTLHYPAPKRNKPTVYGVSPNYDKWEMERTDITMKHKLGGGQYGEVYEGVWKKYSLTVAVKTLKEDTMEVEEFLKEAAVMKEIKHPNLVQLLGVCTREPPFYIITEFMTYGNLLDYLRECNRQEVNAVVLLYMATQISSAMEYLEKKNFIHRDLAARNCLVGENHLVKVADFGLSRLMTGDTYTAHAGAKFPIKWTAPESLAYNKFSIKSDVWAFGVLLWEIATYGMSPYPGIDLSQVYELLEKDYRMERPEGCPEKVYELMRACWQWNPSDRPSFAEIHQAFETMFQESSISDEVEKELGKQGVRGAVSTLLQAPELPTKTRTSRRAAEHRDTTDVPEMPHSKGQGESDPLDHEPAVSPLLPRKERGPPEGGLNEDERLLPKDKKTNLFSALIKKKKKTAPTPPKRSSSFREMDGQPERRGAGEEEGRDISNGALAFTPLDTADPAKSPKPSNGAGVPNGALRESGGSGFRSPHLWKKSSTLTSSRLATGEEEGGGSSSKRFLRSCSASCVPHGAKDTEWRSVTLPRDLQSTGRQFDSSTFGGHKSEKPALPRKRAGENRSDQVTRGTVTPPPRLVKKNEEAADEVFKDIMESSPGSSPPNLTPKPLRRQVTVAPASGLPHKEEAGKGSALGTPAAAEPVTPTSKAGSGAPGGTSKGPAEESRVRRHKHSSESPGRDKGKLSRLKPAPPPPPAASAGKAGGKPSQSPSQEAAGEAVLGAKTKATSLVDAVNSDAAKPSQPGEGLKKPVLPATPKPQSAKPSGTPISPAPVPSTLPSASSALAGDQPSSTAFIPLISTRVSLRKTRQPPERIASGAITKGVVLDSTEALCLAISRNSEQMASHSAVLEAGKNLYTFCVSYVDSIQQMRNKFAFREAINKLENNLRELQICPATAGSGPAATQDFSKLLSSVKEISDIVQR

[7] = biological target: T3, Bone morphogenetic protein receptor type-2 (Homo sapiens) (UniProt Q13873); test: Selectivity interaction (KinomeScan (DiscoverX)) EUB0001049a BMPR2; details: at 1 µM
T3 sequence (whole entry): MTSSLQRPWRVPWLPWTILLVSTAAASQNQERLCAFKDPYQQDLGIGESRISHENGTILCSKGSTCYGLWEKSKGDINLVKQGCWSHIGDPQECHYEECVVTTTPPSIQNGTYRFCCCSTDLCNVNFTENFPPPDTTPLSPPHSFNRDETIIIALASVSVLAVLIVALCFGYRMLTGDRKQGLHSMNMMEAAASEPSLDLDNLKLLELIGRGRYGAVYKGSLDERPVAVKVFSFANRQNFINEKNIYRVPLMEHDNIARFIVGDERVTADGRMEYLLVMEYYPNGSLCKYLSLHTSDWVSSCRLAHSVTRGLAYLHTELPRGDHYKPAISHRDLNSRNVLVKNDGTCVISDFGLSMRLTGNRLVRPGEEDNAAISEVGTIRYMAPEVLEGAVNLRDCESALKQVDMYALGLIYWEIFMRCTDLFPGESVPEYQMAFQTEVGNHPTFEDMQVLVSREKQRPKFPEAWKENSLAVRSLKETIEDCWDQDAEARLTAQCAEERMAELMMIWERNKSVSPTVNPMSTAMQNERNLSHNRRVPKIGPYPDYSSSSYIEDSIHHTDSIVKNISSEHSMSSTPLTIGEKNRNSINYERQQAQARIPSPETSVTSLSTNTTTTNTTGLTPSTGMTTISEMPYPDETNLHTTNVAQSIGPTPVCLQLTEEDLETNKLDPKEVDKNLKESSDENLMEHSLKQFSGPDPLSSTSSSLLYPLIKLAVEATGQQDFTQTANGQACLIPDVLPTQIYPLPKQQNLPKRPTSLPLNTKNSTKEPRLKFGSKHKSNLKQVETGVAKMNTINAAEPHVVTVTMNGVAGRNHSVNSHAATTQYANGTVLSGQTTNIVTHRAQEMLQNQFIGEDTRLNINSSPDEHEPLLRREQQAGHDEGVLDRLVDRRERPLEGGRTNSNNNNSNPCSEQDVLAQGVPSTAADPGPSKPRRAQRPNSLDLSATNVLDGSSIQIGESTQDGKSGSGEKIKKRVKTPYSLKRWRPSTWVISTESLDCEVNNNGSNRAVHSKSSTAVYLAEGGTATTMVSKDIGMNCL

G protein-coupled receptor kinase 4 (Homo sapiens), sequence (P32298 whole entry, looked up): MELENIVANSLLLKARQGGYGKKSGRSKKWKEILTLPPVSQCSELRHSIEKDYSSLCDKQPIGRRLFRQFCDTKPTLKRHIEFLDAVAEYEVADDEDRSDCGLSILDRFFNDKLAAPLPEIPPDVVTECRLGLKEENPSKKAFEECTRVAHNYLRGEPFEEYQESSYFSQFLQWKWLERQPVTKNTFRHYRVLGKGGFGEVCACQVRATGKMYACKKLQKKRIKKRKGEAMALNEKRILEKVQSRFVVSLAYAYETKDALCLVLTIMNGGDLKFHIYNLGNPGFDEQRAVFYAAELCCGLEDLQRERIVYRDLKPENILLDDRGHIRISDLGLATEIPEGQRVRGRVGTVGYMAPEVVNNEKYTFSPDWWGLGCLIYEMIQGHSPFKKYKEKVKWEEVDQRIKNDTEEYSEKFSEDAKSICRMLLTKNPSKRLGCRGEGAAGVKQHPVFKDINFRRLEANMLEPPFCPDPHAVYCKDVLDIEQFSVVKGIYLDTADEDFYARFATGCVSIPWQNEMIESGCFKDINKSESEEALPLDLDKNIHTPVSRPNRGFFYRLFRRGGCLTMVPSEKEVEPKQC

## CCC(=O)N1CCN(c2ccc(-n3c(=O)ccc4cnc5ccc(-c6cnc7ccccc7c6)cc5c43)cc2C(F)(F)F)CC1
[1]
  % of control: 90%
[2]
  % of control: 47%

## C=CC(=O)Nc1cccc(C(=O)Nc2ccc(Nc3cc(-c4[nH]c(SC)nc4C)ccn3)cc2)c1
[3]; at 1 µM
  % of control: 100%
[3]; at 5 µM
  % of control: 99%

## Cc1cc([C@@H](C)Nc2ccccc2C(=O)O)c2nc(N3CCOCC3)cc(=O)n2c1 [AZD-6482]
[4]
  % of control: 100%

## Cn1cc(-n2cnc3c(NCc4nc5cc(Cl)c(Cl)cc5[nH]4)nc(N4CCOCC4)nc32)cn1
[5]
  % of control: 18.1%

## CNC(=O)Nc1ccc(-c2nc(N3CC4CCC(C3)O4)c3cnn(C4CCC5(CC4)OCCO5)c3n2)cc1
[6]
  % of control: 100%

## COc1cc(Nc2nc(C)cc(-c3cnn4nc(OC)ccc34)n2)cc(C(F)(F)F)c1
[7]
  % of control: 100%
